The record followed here is patent US20240239790A1, “7-Morpholino-1,6-Naphthyridin-5-yl Derivatives and Pharmaceutical Compositions Thereof Useful as DNA-PK Inhibitor” (adMare Therapeutics Society, priority 2021, published 2024).

Data set [1] deals with T1, DNA-PK phosphorylation at Serine 2056 (Homo sapiens, UniProt P78527).
T1 construct: FaDu cells were purchased from ATCC; host or cells: FaDu
Kind of data set: Cellular Assay for Inhibition of DNA-PK Phosphorylation at Serine 2056 in FaDu cells (sandwich ELISA, neocarzinostatin). The format is cell-based. To be noted: pSer2056 DNA-PK, Table 3. The essentials:
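pSer2056 and total DNA-PK were measured by sandwich ELISA in BCA-normalised FaDu lysates. Cells had 1 h compound exposure (0.3% DMSO), then 2 h with 1 μg/mL final neocarzinostatin. IC50 was fitted (variable slope) to % inhibition scaled against NCS-stimulated and DMSO-only controls.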
(In general: An ELISA detects its analyte on a solid surface through an enzyme-linked reagent.)

The test system of data set [2] is pH2AX induction in HCT116 ATM-/- multicellular tumour spheroids. Kind of data set: Prodrug Radiation Sensitization in Multicellular Tumour Spheroids, inhibition of pH2AX induction following radiation. The format is cell-based. To be noted: Homo sapiens, HCT-116, 20 Gy. The method in brief: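 Endpoint: pH2AX (ser 139) or pDNA-PK (ser 2056) in cryosections fixed 1 or 2 h after 20 Gy, comparing oxygenated outer with hypoxic inner layers. Spheroids of ~0.5 mm (HCT116, FaDu; ATM-deficient cells used) held at 20% or 5% O2, 37 °C, stirred. Prodrug range 3.5 nM–10 μM.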

Data set [3] relates to FaDu cell line. Briefly: Prodrug Activation in Hypoxic Stirred Tumour Cell Suspensions. To be noted: 10 μM, 4 hours.
[4] abbreviates: 5% O2, inner layers, read-out: Prodrug 5% O2 Inner layers EC50.
Setting [5] is: 5% O2, outer layers, read-out: Prodrug 5% O2 Outer layers EC50.
The mark [6] stands for this setting: 20% O2, outer layers, read-out: Prodrug 20% O2 Outer layers EC50.

Like-named read-outs stand apart in the source and are kept apart here.

The IC50 is the concentration at which inhibition is half-maximal. A higher IC50 goes with lower potency. The EC50 is the concentration needed to bring the measured effect to its halfway point. In data set [1], `CC(c1cnn(C)c1[N+](=O)[O-])N(c1cnc2cc(N3CCOCC3)nc(O[C@H]3CC[C@@H](Nc4ncc(N5CCN(C)CC5)cn4)CC3)c2c1)S(C)(=O)=O` (stereo partly drawn) [LFA2067, N-[1-(1-methyl-5-nitro-pyrazol-4-yl)ethyl]-N-[5-[4-[[5-(4-methylpiperazin-1-yl)pyrimidin-2-yl]amino]cyclohexoxy]-7-morpholino-1,6-naphthyridin-3-yl]methanesulfonamide] yielded an IC50 of 1000 to 10000 nM. The EC50 in data set [2] (setting [4]) fell in the range of 10 to 500 nM; in data set [2] (setting [5]) it was 500 to 1000 nM; in data set [2] (setting [6]), 1000 to 10000 nM. For the same molecule, the “Fraction of prodrug converted to active form, Hypoxic 0.2% O2” value (“Fraction … Hypoxic 0.2% O2” below) in data set [3] was “B (B is 0.05 to 0.15)”. In addition, in data set [3], the “Fraction of prodrug converted to active form, Oxic 5% O2” value (“Fraction … Oxic 5% O2” below) was “B (B is 0.05 to 0.15)”.

`CC(Oc1cnc2cc(N3CCOCC3)nc(O[C@H]3CC[C@@H](Nc4ncc(OCCN(C)C)cn4)CC3)c2c1)c1cnc([N+](=O)[O-])n1C` (stereo partly drawn) [LFA2087, 5-[2-(dimethylamino)ethoxy]-N-[4-[[3-[1-(3-methyl-2-nitro-imidazol-4-yl)ethoxy]-7-morpholino-1,6-naphthyridin-5-yl]oxy]cyclohexyl]pyrimidin-2-amine] showed an IC50 in data set [1] of 1000 to 10000 nM. Besides, the EC50 in data set [2] (setting [4]), in data set [2] (setting [5]) and in data set [2] (setting [6]) was 1000 to 10000 nM throughout. For the same molecule, in data set [3], the “Fraction … Hypoxic 0.2% O2” value is “A (A is 0.15 to 1)”. The “Fraction … Oxic 5% O2” value in data set [3] is listed as “D (D is 0 to 0.02)”.

With `Cn1c(CN(c2cnc3cc(N4CCOCC4)nc(O[C@H]4CC[C@@H](Nc5cnc(C#N)cn5)CC4)c3c2)S(C)(=O)=O)cnc1[N+](=O)[O-]` [LFA2103, N-[5-[4-[(5-cyanopyrazin-2-yl)amino]cyclohexoxy]-7-morpholino-1,6-naphthyridin-3-yl]-N-[(3-methyl-2-nitro-imidazol-4-yl)methyl]methanesulfonamide], in data set [1], the IC50 fell in the range of 1000 to 10000 nM. The EC50 in data set [2] (setting [4]) lay within 10 to 500 nM; in data set [2] (setting [5]), 1000 to 10000 nM; in data set [2] (setting [6]), 10000 to 100000 nM. Moreover, in data set [3], the “Fraction … Hypoxic 0.2% O2” value is recorded as “B (B is 0.05 to 0.15)”. Besides, the “Fraction … Oxic 5% O2” value in data set [3] is given as “D (D is 0 to 0.02)”.

For `CC(c1cnc([N+](=O)[O-])n1C)N(c1cnc2cc(N3CCOCC3)nc(O[C@H]3CC[C@@H](Nc4ncc(N5CCN(C)CC5)cn4)CC3)c2c1)S(C)(=O)=O` (stereo partly drawn) [LFA2070, N-[1-(3-methyl-2-nitro-imidazol-4-yl)ethyl]-N-[5-[4-[[5-(4-methylpiperazin-1-yl)pyrimidin-2-yl]amino]cyclohexoxy]-7-morpholino-1,6-naphthyridin-3-yl]methanesulfonamide], the 50% inhibitory concentration (IC50) in data set [1] lay in the range of 10000 to 30000 nM. Moreover, the results for the concentration giving a half-maximal response (EC50) in data set [2] (setting [4]), in data set [2] (setting [5]) and in data set [2] (setting [6]) were 10 to 500 nM, 1000 to 10000 nM and 10000 to 100000 nM, respectively. Further, the “Fraction … Hypoxic 0.2% O2” value in data set [3] is reported as “B (B is 0.05 to 0.15)”. Besides, in data set [3], the “Fraction … Oxic 5% O2” value is on record as “D (D is 0 to 0.02)”.

`CC(c1cnc([N+](=O)[O-])n1C1CC1)N(c1cnc2cc(N3CCOCC3)nc(OC3CCC(Nc4ccn5nccc5n4)CC3)c2c1)S(C)(=O)=O` (stereo not drawn) [LFA2051, N-[1-(3-cyclopropyl-2-nitro-imidazol-4-yl)ethyl]-N-[7-morpholino-5-[4-(pyrazolo[1,5-a]pyrimidin-5-ylamino)cyclohexoxy]-1,6-naphthyridin-3-yl]methanesulfonamide] displayed an IC50 in data set [1] of 10000 to 30000 nM. In addition, the EC50 in data set [2] (setting [4]) lay in the range of 10 to 500 nM; in data set [2] (setting [5]), 1000 to 10000 nM; in data set [2] (setting [6]) it was 1000 to 10000 nM. Further, the “Fraction … Hypoxic 0.2% O2” value in data set [3] is “A (A is 0.15 to 1)”. The “Fraction … Oxic 5% O2” value in data set [3] is “D (D is 0 to 0.02)”.
